The record followed here is ChEMBL document CHEMBL3044558, “Structure-activity relationship development of dihaloaryl triazole compounds as insecticides and acaricides. 1. Phenyl thiophen-2-yl triazoles” (2007).

The subject of assay [1] is Spodoptera exigua. Nature of the assay: Insecticidal activity against Spodoptera exigua second-instar larvae feeded on 400 ppm compound treated lepidopteran diet assessed as insect mortality measured 5 days post compound treatment under green house conditions. The settings on record: at 400 ppm. It is filed as functional.
Assay [2] has as its system Bemisia tabaci. Nature of the assay: Insecticidal activity against Bemisia tabaci (sweet potato whitefly) second-instar larvae infested five weeks old cotton plants followed by compound 250 ppm compound spraying after insect oviposit assessed as insect mortality measured 13 days post compound treatment under green house conditions. It is filed as functional.
The test system of assay [3] is Trichoplusia ni.
Assay [4] concerns Aphis gossypii.
The test system of assay [5] is Tetranychus urticae. Nature of the assay: Insecticidal activity against female Tetranychus urticae (two-spotted spider mite) infested cotton leaf disks followed by 2.5 ppm compound spraying after oviposit assessed as insect mortality measured after 6 days post compound application under green house conditions. It is filed as functional. The settings on record: foliar, 144 h.

Assay [6] deals with Heliothis virescens.
In assay [7] the test system is Trichoplusia ni. Nature of the assay: Insecticidal activity against Trichoplusia ni (cabbage looper) second-instar larvae infested on 400 ppm compound pre-treated cabbage leaf disk assessed as insect mortality measured 5 days post compound treatment under green house conditions. Type of assay: functional. To be noted: at 400 ppm.
Assay [8] deals with Heliothis virescens. Nature of the assay: Insecticidal activity against Heliothis virescens (tobacco budworm) second-instar larvae infested on 400 ppm compound pre-treated cotton cotyledon disk assessed as insect mortality measured 5 days post compound treatment under green house conditions. It is filed as functional.
The test system of assay [9] is Spodoptera exigua.
Assay [10] relates to Tetranychus urticae.
The test system of assay [11] is Bemisia tabaci.
The test system of assay [12] is Aphis gossypii. Nature of the assay: Insecticidal activity against Aphis gossypii (cotton aphid) infested one week old Crookneck squash plants assessed as insect mortality at 50 ppm measured after 3 days post compound application under green house conditions. Type of assay: functional. To be noted: 72 h.

The source made the active and inactive calls. The rule behind the calls is not given here. Bounds are passed on as bounds.

Consider `Cc1c(-c2nc(-c3c(F)cccc3Cl)nn2C)sc(Cl)c1-c1ccc(OC(F)(F)F)cc1`, for which the figures for the mortality in the assay on Spodoptera exigua [1] and with Bemisia tabaci [2] were 90% and below 50%, respectively. Further, the mortality entry in the assay on Trichoplusia ni [3], in the assay on Aphis gossypii [4] and with Heliothis virescens [6] was “inactive” each time. Moreover, the mortality at 2.5 ppm in the assay with Tetranychus urticae [5] is 90%.
In the case of `Cn1nc(-c2c(F)cccc2Cl)nc1-c1cc(Br)c(-c2ccc(OC(F)(F)F)cc2)s1`, the mortality with Bemisia tabaci [2] is below 50%; with Trichoplusia ni [7], 90%; in the assay on Heliothis virescens [8] it was 90%. Moreover, the mortality entry in the assay with Aphis gossypii [4] and with Spodoptera exigua [9] was “inactive” each time. Further, the mortality at 2.5 ppm with Tetranychus urticae [5] amounted to 90%.
Turning to `Cn1nc(-c2c(F)cccc2Cl)nc1-c1ccc(-c2ccc(F)cc2)s1`, the values for the mortality in the assay on Spodoptera exigua [1], in the assay with Bemisia tabaci [2] and with Trichoplusia ni [7] were below 50%, below 50% and 80%, respectively. For the same molecule, the mortality entry in the assay on Aphis gossypii [4], with Heliothis virescens [6] and in the assay on Tetranychus urticae [10] was “inactive” throughout.
For the molecule `Cn1nc(-c2c(F)cccc2Cl)nc1-c1sc(-c2ccc(OC(F)(F)F)cc2)c(Cl)c1Cl`, the mortality was 70% in the assay with Spodoptera exigua [1], 70% with Bemisia tabaci [2], 90% with Trichoplusia ni [7] and 60% in the assay with Heliothis virescens [8]. Also, the mortality result with Aphis gossypii [4] and in the assay on Tetranychus urticae [10] was “inactive” each time.
`Cn1nc(-c2c(F)cccc2Cl)nc1-c1cc(-c2ccc(Cl)cc2)c(Cl)s1`: the mortality with Spodoptera exigua [1] stood at 50%. Further, the mortality result in the assay on Aphis gossypii [4], in the assay on Heliothis virescens [6] and in the assay on Tetranychus urticae [10] was “inactive” in each case.
Take `Cc1c(-c2ccc(O)cc2)csc1-c1nc(-c2c(F)cccc2Cl)nn1C`: the mortality in the assay on Spodoptera exigua [1] and in the assay with Heliothis virescens [8] was below 50% in each case. Further, the mortality entry in the assay on Trichoplusia ni [3], in the assay on Aphis gossypii [4], in the assay on Bemisia tabaci [11] and with Tetranychus urticae [10] was “inactive” throughout.
On to `Cn1nc(-c2c(F)cccc2F)nc1-c1sc(-c2ccc(C(F)(F)F)cc2)cc1Cl`, for which the mortality result with Aphis gossypii [4], in the assay on Bemisia tabaci [11] and in the assay on Spodoptera exigua [9] was “inactive” each time. The mortality in the assay on Trichoplusia ni [7] is below 50%; with Heliothis virescens [8] it was 90%. The mortality at 2.5 ppm in the assay with Tetranychus urticae [5] is 90%.
With `Cc1cc(C2CCC(OC(=O)C(F)(F)Br)CC2)sc1-c1nc(-c2c(F)cccc2Cl)nn1C` (configuration not stated), the mortality with Spodoptera exigua [1] is recorded as below 50%. Also, the mortality result with Trichoplusia ni [3], in the assay with Aphis gossypii [4], in the assay with Heliothis virescens [6] and in the assay with Tetranychus urticae [10] was “inactive” in each case.
For the molecule `Cn1nc(-c2c(F)cccc2Cl)nc1-c1cc(Br)c(-c2cccc(OC(F)(F)F)c2)s1`, the mortality in the assay on Spodoptera exigua [1] and in the assay with Bemisia tabaci [2] was below 50% each time. Further, the mortality entry in the assay on Trichoplusia ni [3], in the assay with Aphis gossypii [4], with Heliothis virescens [6] and with Tetranychus urticae [10] was “inactive” each time.
For the molecule `Cc1c(-c2nc(-c3c(F)cccc3Cl)nn2C)sc(-c2ccc(OC(F)(F)F)cc2)c1Br`, the mortality with Spodoptera exigua [1] and in the assay on Trichoplusia ni [7] was 90% in each case. Besides, the mortality entry in the assay on Aphis gossypii [4], in the assay on Bemisia tabaci [11] and with Heliothis virescens [6] was “inactive” each time. In addition, the mortality at 2.5 ppm with Tetranychus urticae [5] was determined as 90%.
In the case of `Cn1nc(-c2c(F)cccc2Cl)nc1-c1ccc(-c2cccc(OC(F)(F)F)c2)s1`, the mortality is below 50% in the assay with Spodoptera exigua [1] and 80% in the assay with Trichoplusia ni [7]. For the same molecule, the mortality result with Aphis gossypii [4], with Bemisia tabaci [11], in the assay on Heliothis virescens [6] and in the assay on Tetranychus urticae [10] was “inactive” in each case.
`Cc1cc(-c2ccc3c(c2)OC(F)(F)O3)sc1-c1nc(-c2c(F)cccc2Cl)nn1C`: the figures for the mortality with Spodoptera exigua [1] and in the assay with Bemisia tabaci [2] were 80% and below 50%, respectively. Moreover, the mortality result in the assay with Trichoplusia ni [3], in the assay with Aphis gossypii [4], in the assay on Heliothis virescens [6] and in the assay on Tetranychus urticae [10] was “inactive” in each case.
For the molecule `COc1ccc(-c2ccc(-c3nc(-c4c(F)cccc4F)nn3C)s2)cc1`, the mortality is 90% with Spodoptera exigua [1] and below 50% with Trichoplusia ni [7]. Besides, the mortality entry with Aphis gossypii [4], in the assay on Bemisia tabaci [11], with Heliothis virescens [6] and with Tetranychus urticae [10] was “inactive” throughout.
As to `CCOc1ccc(-c2ccc(-c3nc(-c4c(F)cccc4Cl)nn3C)s2)cc1`, the mortality with Spodoptera exigua [1] was 80%; in the assay on Bemisia tabaci [2] it was below 50%; in the assay with Trichoplusia ni [7], 90%. Further, the mortality result with Aphis gossypii [4], in the assay with Heliothis virescens [6] and in the assay with Tetranychus urticae [10] was “inactive” each time.
Regarding `Cc1cc(-c2ccncc2)sc1-c1nc(-c2c(F)cccc2Cl)nn1C`, the mortality in the assay on Spodoptera exigua [1] was 70%; with Trichoplusia ni [7], 90%; in the assay with Heliothis virescens [8] it was below 50%. Besides, the mortality result with Aphis gossypii [4], in the assay with Bemisia tabaci [11] and in the assay with Tetranychus urticae [10] was “inactive” in each case.
In the case of `Cc1c(-c2ccc(C(F)(F)F)cc2)csc1-c1nc(-c2c(F)cccc2Cl)nn1C`, the results for the mortality in the assay with Spodoptera exigua [1], with Bemisia tabaci [2] and in the assay with Trichoplusia ni [7] were 60%, below 50% and 90%, respectively. Also, the mortality at 50 ppm with Aphis gossypii [12] was determined as 60%. Besides, in the assay on Tetranychus urticae [5], the mortality at 2.5 ppm was 60%. In addition, the mortality entry in the assay on Heliothis virescens [6] is “inactive”.
Consider `Cn1nc(-c2c(F)cccc2F)nc1-c1cc(-c2ccccc2)c(C(F)(F)F)s1`, for which the mortality with Spodoptera exigua [1] was 50%. In addition, the mortality result with Trichoplusia ni [3], in the assay with Aphis gossypii [4], in the assay with Heliothis virescens [6] and in the assay with Tetranychus urticae [10] was “inactive” in each case.
Consider `Cc1ccc(-c2sc(-c3nc(-c4c(F)cccc4Cl)nn3C)cc2Br)cc1`, for which the mortality in the assay with Spodoptera exigua [1] and in the assay on Bemisia tabaci [2] was below 50% each time. The mortality result in the assay on Trichoplusia ni [3], in the assay on Aphis gossypii [4], in the assay on Heliothis virescens [6] and in the assay with Tetranychus urticae [10] was “inactive” in each case.
With `Cc1cc(-c2cccc(OC(F)(F)F)c2)sc1-c1nc(-c2c(F)cccc2Cl)nn1C`, the mortality in the assay with Spodoptera exigua [1] is given as 80%; with Bemisia tabaci [2], below 50%; in the assay on Trichoplusia ni [7] it was 90%; in the assay on Heliothis virescens [8], 90%. For the same molecule, the mortality result in the assay on Aphis gossypii [4] and with Tetranychus urticae [10] was “inactive” in each case.
On to `Cc1cc(C2(O)CCC(=O)CC2)sc1-c1nc(-c2c(F)cccc2Cl)nn1C`, for which the mortality with Spodoptera exigua [1], in the assay on Trichoplusia ni [7] and in the assay on Heliothis virescens [8] was below 50% throughout. Further, the mortality entry in the assay with Aphis gossypii [4], with Bemisia tabaci [11] and in the assay with Tetranychus urticae [10] was “inactive” throughout.
On to `Cc1cc(-c2ccc(Cl)c(Cl)c2)sc1-c1nc(-c2c(F)cccc2Cl)nn1C`, for which the mortality with Spodoptera exigua [1] amounted to 70%; with Trichoplusia ni [7], 60%. Moreover, the mortality result in the assay with Aphis gossypii [4], in the assay on Bemisia tabaci [11], with Heliothis virescens [6] and with Tetranychus urticae [10] was “inactive” in each case.
As to `Cc1cc(C2=CCC(OC(F)(F)C(F)Br)CC2)sc1-c1nc(-c2c(F)cccc2Cl)nn1C` (configuration not stated), the mortality in the assay with Spodoptera exigua [1] is given as below 50%. In addition, the mortality result in the assay with Trichoplusia ni [3], in the assay on Heliothis virescens [6] and in the assay with Tetranychus urticae [10] was “inactive” each time. Moreover, in the assay on Aphis gossypii [12], the mortality at 50 ppm is below 50%.
Consider `Cc1cc(-c2cc(Br)cc(Br)c2)sc1-c1nc(-c2c(F)cccc2Cl)nn1C`, for which the mortality in the assay with Spodoptera exigua [1] was 60%; in the assay on Heliothis virescens [8] it was below 50%. The mortality entry with Trichoplusia ni [3], in the assay with Aphis gossypii [4], with Bemisia tabaci [11] and in the assay on Tetranychus urticae [10] was “inactive” in each case.
Turning to `COc1ccc(-c2csc(-c3nc(-c4c(F)cccc4F)nn3C)c2)cc1`, the mortality is on record as 50% in the assay with Spodoptera exigua [1], 60% in the assay with Bemisia tabaci [2] and 80% with Trichoplusia ni [7]. Also, the mortality entry in the assay on Aphis gossypii [4], in the assay on Heliothis virescens [6] and with Tetranychus urticae [10] was “inactive” each time.
On to `Cn1nc(-c2c(F)cccc2Cl)nc1-c1cc(Br)c(-c2cccc(C(F)(F)F)c2)s1`, for which the mortality in the assay with Spodoptera exigua [1] is given as below 50%. In addition, the mortality result with Trichoplusia ni [3], with Aphis gossypii [4], in the assay with Bemisia tabaci [11], with Heliothis virescens [6] and in the assay with Tetranychus urticae [10] was “inactive” in each case.
Consider `COCCOc1cccc(-c2cc(C)c(-c3nc(-c4c(F)cccc4Cl)nn3C)s2)c1`, for which the mortality with Spodoptera exigua [1] was 80%; in the assay with Trichoplusia ni [7] it was 70%. In addition, the mortality at 50 ppm with Aphis gossypii [12] was below 50%. In the assay on Tetranychus urticae [5], the mortality at 2.5 ppm was below 50%. Moreover, the mortality entry in the assay on Bemisia tabaci [11] and in the assay with Heliothis virescens [6] was “inactive” throughout.
Take `Cc1c(-c2nc(-c3c(F)cccc3Cl)nn2C)sc(Br)c1-c1ccc(OC(F)(F)F)cc1`: in the assay on Spodoptera exigua [1], the mortality was found to be 90%. For the same molecule, the mortality result in the assay with Trichoplusia ni [3], in the assay on Aphis gossypii [4], in the assay on Bemisia tabaci [11] and in the assay with Heliothis virescens [6] was “inactive” in each case. Besides, the mortality at 2.5 ppm in the assay with Tetranychus urticae [5] came to 50%.
